Blank lines part the entries; values can stand above or below the compound they belong to.
Tests used:
[1] = tested on: human foreskin fibroblasts; assay: Growth of fibroblasts under mTOR inhibitor treatment (CellTiter-Glo); format: cell-based; conditions: two days of treatment, low nanomolar concentrations
[2] = tested on: diploid hESCs; assay: Growth curve of hESCs (CellTiter-Glo luminescent cell viability assay); format: cell-based, human
Protocol: All genes were targeted with commercial pooled siRNAs to increase the specificity of the knockdown. esiRNAs for SALL4, DSCC1 and SEPHS1 and the control esiRNA for Renilla luciferase were obtained from Sigma (cat. nos. EHU037061, EHU021301, EHU107861 and EHURLUC, respectively). siRNA for VRTN was obtained from GE Healthcare Dharmacon (cat. no. L-021159-02-0005). Briefly, 30-50 nM siRNA was mixed with 0.14 μl of DharmaFECT 1 transfection reagent (GE Healthcare Dharmacon) in Opti-MEM I reduced serum medium (Thermo Fisher Scientific) for 30 min. The transfection mix was added on a matrigel-coated well of a 96-well plate and 3,000 hESCs were plated on the transfection mix in the presence of mTeSR 1 medium. The cells were subsequently grown for 3-4 days and the mTeSR 1 medium was replaced every 24 h. Cell viability was assessed by a CellTiter-Glo luminescent cell viability assay according to the manufacturer's instructions (Promega). Luminescence reads for the target genes were normalized to control siRNA conditions, and the replicate experiments were averaged. For growth curves of IGF1-treated and control hESCs, cells were plated in matrigel-coated wells with equal numbers and their density was measured for four consecutive days with CellTiter-Glo luminescent cell viability assay (Promega). The density measured one day after plating was considered Day 0, after which cells were switched to MEF-conditioned medium containing 100 ng ml^−1 IGF1. Every day was normalized to Day 0 and replicate experiments were averaged.

[3] = molecular target: Bax (BCL2 associated X, apoptosis regulator) (human) (UniProt Q07812); assay: cell-based or functional assay
[4] = tested on: hESCs; assay: Effect of Bax inhibition on hESC growth (CellTiter-Glo luminescence); format: cell-based, human; conditions: 100 or 200 uM, after 24 hours, vs 0 uM
Protocol: Next, we examined the effect of Bax inhibition on hESC growth. hESCs were treated with either 0, 100, or 200 uM of BAX-inhibiting peptide V5 (BIP-V5, Sigma). At time point zero when the peptide was added CellTiter-Glo reagent was also added to the cells and luminescence was measured with a plate reader. Bax inhibition increased the relative growth of the hESCs by 15-25% after 24 hours (FIG. 13).

[5] = tested on: hESCs; assay: Cell-cycle profile by PI staining and flow cytometry; format: cell-based, human; conditions: IGF1-treated vs control diploid hESCs
Protocol: PI staining was performed as described in Sagi, I., Egli, D. & Benvenisty, N. Identification and propagation of haploid human pluripotent stem cells. Nat. Protoc. 11, 2274-2286 (2016). Briefly, hESCs were trypsinized with TrypLE Select and fixed with cold methanol (4° C.). Fixed cells were treated with 200 μg ml^−1 RNase A (Sigma) for 30 min and stained with 50 μg ml^−1 PI for 5 min. Stained cells were filtered through a 70 μm cell strainer and analysed in BD FACSAria III for their cell-cycle profile.

[6] = tested on: hESCs; assay: TRA-1-60 immunocytochemistry (flow cytometry of TRA-1-60-positive pluripotent cells); format: cell-based, human; conditions: IGF1-treated vs control diploid hESCs
Protocol: hESCs were trypsinized with TrypLE Select. Cells were collected in cold PBS containing 10% KSR, centrifuged at 300 g for 5 min and resuspended in 200 μl PBS containing 10% KSR. PE-conjugated mouse anti-human TRA-1-60 antibody (1:40, BD Biosciences) was then incubated with the cells for 30 min at 4° C. Cells were washed with PBS containing 10% KSR twice, centrifuged at 300 g at 4° C. and resuspended in PBS with 10% KSR. Immunolabelled cells were filtered through a 70 μm cell strainer and analysed in BD FACSAria III for the proportion of TRA-1-60-positive cells.

[7] = tested on: hESCs; assay: Apoptosis assay (Annexin V / PI flow cytometry); format: cell-based, human; conditions: IGF1-treated vs control diploid hESCs
Description: hESCs were trypsinized gently with TrypLE Select. Apoptotic cells were labelled with Annexin V and propidium iodide (PI) using the MEBCYTO Apoptosis Kit according to the manufacturer's instructions (MBL). Labelled cells were filtered through a 70 μm cell strainer and analysed in BD FACSAria III for the proportion of annexin V-positive cells.

UniProt Q07812, sequence (Q07812 whole entry): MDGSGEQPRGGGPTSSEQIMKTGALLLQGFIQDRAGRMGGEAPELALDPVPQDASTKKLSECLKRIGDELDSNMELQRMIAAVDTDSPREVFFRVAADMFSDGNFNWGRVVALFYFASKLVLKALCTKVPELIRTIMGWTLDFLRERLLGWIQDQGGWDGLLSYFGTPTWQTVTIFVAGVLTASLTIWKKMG

Compound: CCC(=O)N1CCN(c2ccc(-n3c(=O)ccc4cnc5ccc(-c6cnc7ccccc7c6)cc5c43)cc2C(F)(F)F)CC1 [Torin 1, reference compound]
growth inhibition of fibroblasts [1]: up to 60% | growth and survival of hESCs ([2]; two days of treatment, low nanomolar concentrations): completely abolished

relative growth of hESCs (CellTiter-Glo luminescence) after 24 hours [3]: 15 to 25%
Compound: BAX-inhibiting peptide V5

Compound: BAX-inhibiting peptide V5 [BIP-V5]
increase in relative growth of hESCs [4]: 15-25%

Compound: insulin like growth factor 1 [IGF1]
cell-cycle (cells in G2/M phase) [5]: not affecting | differentiation dynamics (TRA-1-60+ pluripotent cells) [6]: not affecting | percentage of apoptotic hESCs [7]: significantly decreases the percentage of apoptotic hESCs | growth rate of diploid hESCs ([2]; IGF1 100 ng ml^-1 in MEF-conditioned medium, especially low levels of KSR, vs untreated control): significantly increased the growth rate | rescue of rapamycin growth-inhibition of hESCs ([2]; rapamycin + IGF1 vs rapamycin alone): failed to rescue
